Data taken from patent US5935945A, “Methods of treating or preventing cardiac arrhythmia” (Merck & Co., Inc., priority 1997, dated 1999).
Read-outs that look alike come from different tables or passages of the source.

How the values were obtained:
[1] = system: IK1 (inward rectifier K^+ current); experiment: Voltage-clamp measurement of IK1 in guinea pig ventricular myocytes; assay type: cell-based; settings: @ 3 μM
Method: (§1) Guinea pig ventricular myocytes were isolated using a modification of the procedure described by Mitra et al., Am. J. Physiol. 249:H1056-60 (1985). Excised hearts were perfused through the aorta (retrograde fashion) at a rate of 10 ml/min with oxygenated, warmed (37° C.) solutions described below. The heart was initially perfused for 7 minutes with a Tyrode's solution containing, (in mM): 132 NaCl, 4 KCl, 1.2 MgCl2, 10 HEPES, 5 glucose, pH=7.2. The heart was then perfused with the same nominally Ca^2+ -free solution containing 150 units/ml Type II collagenase (Worthington) and 0.5 units/ml Type XIV protease (Sigma) for 8 minutes. This perfusate was followed by a Tyrode's solution containing 0.2 mM CaCl2 (without enzymes) for 5 minutes. The digested ventricles were cut into small pieces and gently shaken until cells were visibly dispersed. The cells were stored at room temperature until use, within 8 hours after isolation.
(§2) The suction microelectrode technique described by Giles, W. R. and Shibata, E. F., "Voltage clamp of bull-frog cardiac pacemaker cells: a quantitative analysis of potassium currents", J. Physiol. 368:265-292 (1985) was used to voltage clamp the cells. Microelectrodes were made by using a two stage puller from square bore (1.0 mm o.d.) borosilicate capillary tubing. Pipettes were filled with 0.5 M K gluconate, 25 mM KCl and 5 mM K2 ATP. The electrodes had resistances of 3 to 7 M.OMEGA. when filled with this solution. After establishing whole-cell recording mode, negative pressure was maintained on the pipette using a 1 ml gas-tight syringe attached via air tight tubing to the suction port of the microelectrode holder. This minimized dialysis of the cell with the pipette solution.
(§3) To record K^+ currents, the cells were bathed in a Ca^2+ -free Tyrode's solution containing […]. […] To record Ca^2+ currents, the cells were bathed in Tyrode's solution containing 1.8 mM Ca^2+ without nisoldipine. The cell chamber was superfused with solutions at a rate of 1-2 ml/minute, while maintaining the temperature at 35±1° C. A List EPC-7 clamp amplifier was used to voltage clamp the isolated cells. […] (Sanguinetti M. C. and Jurkiewicz, N. K., "Two components of cardiac delayed rectifier K^+ current: Differential sensitivity to block by Class III antiarrhythmic agents", J. Gen Physiol 1990; 96:194-214.) Data was analyzed as % block from control membrane currents.
(§4) Nisoldipine was prepared as a 4 mM stock solution in polyethylene glycol 200. […] At the final concentrations used neither polyethylene glycol 200 nor dimethyl sulfoxide had any effect on any of the measured membrane currents.
(§5) Selectivity for block of cardiac K^+ channels, IK1, IKr, and IKs was determined as previously described in guinea pig ventricular myocytes (U.S. Pat. No. 5,428,031).

[2] = target: T1, IKr (rapidly activating delayed rectifier K^+ current) (Cavia porcellus, UniProt O08703); experiment: Voltage-clamp measurement of IKr in guinea pig ventricular myocytes; assay type: cell-based; settings: @ 3 μM; read-out: % Block (Guinea Pig Ventricle) IKr
T1 construct: Guinea pig ventricular myocytes were isolated; from tissue; host or cells: isolated guinea pig ventricular myocytes
T1 sequence (O08703 1-1294): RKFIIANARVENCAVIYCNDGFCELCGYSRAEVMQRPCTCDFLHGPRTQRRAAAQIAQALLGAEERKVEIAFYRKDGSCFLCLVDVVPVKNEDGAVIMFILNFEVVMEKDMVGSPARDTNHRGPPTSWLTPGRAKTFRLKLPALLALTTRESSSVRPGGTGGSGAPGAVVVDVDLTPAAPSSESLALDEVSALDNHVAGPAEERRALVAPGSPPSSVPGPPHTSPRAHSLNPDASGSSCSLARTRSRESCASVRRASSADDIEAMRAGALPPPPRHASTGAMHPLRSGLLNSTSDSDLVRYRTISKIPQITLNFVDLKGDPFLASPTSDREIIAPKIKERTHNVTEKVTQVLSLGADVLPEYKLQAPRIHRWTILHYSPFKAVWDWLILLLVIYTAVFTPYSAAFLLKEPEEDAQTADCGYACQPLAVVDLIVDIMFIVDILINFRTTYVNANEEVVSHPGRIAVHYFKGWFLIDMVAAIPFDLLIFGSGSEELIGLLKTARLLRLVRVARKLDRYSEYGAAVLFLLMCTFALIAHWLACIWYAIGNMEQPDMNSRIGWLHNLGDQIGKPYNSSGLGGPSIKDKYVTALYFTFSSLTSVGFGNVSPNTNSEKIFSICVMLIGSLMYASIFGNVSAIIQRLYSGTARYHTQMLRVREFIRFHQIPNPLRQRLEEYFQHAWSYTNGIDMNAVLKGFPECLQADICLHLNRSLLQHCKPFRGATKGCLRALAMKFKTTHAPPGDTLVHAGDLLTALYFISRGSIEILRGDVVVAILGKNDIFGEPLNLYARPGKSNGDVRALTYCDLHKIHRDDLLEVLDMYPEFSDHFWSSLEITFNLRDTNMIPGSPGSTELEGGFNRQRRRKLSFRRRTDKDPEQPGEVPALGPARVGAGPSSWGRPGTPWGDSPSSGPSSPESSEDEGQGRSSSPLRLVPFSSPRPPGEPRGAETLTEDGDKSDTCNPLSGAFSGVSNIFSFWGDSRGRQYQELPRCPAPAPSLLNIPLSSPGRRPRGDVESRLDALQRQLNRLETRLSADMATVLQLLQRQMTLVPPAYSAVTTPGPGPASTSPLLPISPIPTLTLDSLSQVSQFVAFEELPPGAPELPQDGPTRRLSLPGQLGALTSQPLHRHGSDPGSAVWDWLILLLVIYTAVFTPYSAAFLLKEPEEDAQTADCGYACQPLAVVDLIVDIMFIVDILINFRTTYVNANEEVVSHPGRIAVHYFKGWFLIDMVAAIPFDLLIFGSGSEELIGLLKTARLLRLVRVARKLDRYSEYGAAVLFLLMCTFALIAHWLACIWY
Method: as §1, §2, §3, §4, §5

[3] = target: T2, IKs (slowly activating delayed rectifier K^+ current) (Cavia porcellus, UniProt O70344); experiment: Voltage-clamp measurement of IKs in guinea pig ventricular myocytes; assay type: cell-based; settings: @ 3 μM; read-out: % Block (Guinea Pig Ventricle) IKs
T2 construct: Guinea pig ventricular myocytes were isolated; from tissue; host or cells: isolated guinea pig ventricular myocytes
Method: as §1, §2, §3, §4, §5

T2 sequence (O70344 whole entry): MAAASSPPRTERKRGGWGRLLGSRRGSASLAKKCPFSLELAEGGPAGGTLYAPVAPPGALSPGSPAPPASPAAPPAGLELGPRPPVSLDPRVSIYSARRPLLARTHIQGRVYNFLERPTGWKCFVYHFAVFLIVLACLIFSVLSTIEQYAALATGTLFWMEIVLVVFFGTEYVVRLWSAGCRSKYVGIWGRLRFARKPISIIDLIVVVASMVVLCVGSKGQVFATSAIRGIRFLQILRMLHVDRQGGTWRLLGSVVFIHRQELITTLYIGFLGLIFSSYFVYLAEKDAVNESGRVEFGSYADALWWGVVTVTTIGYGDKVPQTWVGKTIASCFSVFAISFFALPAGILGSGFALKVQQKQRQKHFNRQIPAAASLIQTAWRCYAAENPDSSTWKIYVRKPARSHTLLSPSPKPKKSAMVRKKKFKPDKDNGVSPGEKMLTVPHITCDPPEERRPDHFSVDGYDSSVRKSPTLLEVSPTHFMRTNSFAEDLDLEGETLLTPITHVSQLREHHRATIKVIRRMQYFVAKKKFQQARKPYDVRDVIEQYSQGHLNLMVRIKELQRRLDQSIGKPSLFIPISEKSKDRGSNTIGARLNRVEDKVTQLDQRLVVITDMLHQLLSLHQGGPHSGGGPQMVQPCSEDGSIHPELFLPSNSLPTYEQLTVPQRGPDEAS
T2 sequence (Q60409 whole entry partner): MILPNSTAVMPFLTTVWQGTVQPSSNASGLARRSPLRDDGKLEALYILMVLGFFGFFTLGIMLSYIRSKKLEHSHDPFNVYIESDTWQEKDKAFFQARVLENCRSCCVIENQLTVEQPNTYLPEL
Method for atrial flutter: In this model, atrial flutter was induced following a Y-shaped surgical lesion comprised of an intercaval incision and a connecting incision across the right atrium. […] Bipolar electrodes also were sutured to the left ventricle for measurement of ventricular excitation threshold (VET) and ventricular relative (VRRP at 2× VET) and effective refractory periods (VERP at 10×VET). The following cardiac electrophysiologic parameters also were measured before test agent administration and at the termination of the study: AH interval, an index of AV nodal conduction; HV interval, an index of His-ventricular conduction time; P-A interval, an index of intra-atrial conduction; and H-EG interval, an index of ventricular conduction; and paced ECG QT interval. AV nodal functional refractory period (AVNFRP) and SA conduction time (SACT) were determined by the introduction of atrial extrastimuli during sinus rhythm, and the monitoring of ventricular response. Electrocardiographic intervals were determined during sinus rhythm; the rate-corrected ECG QTc interval was calculated as: QTc=QT (msec)/√R-R (sec).
Sustained atrial flutter was initiated in three dogs by electrical burst pacing (6-20 Hz) of the atria; atrial rates ranged from 440-530 cycles/min.

CC1CCC(C(C)C)C(P(=O)(c2ccccc2)c2ccccc2)C1 (centres unmarked) [Compound D, (2-Isopropyl-5-methylcyclohexyl)diphenylphosphine oxide]
% Block (Guinea Pig Ventricle) IK1 [1]: 15% | inhibition at 3 µM [2]: 3% | inhibition at 3 µM [3]: 25% | effect on ventricular function (atrial flutter; dog, in vivo): no indication of effect on ventricular function | time to termination of atrial arrhythmia after test agent administration (atrial flutter; i.v. bolus 1 mg/kg (three dogs) or 10 mg/kg (fourth dog)): 10 to 120 s | atrial rate during atrial flutter (atrial flutter; i.v. bolus 1 mg/kg (three dogs) or 10 mg/kg (fourth dog), initial rates 450-560 cycles/min): slowed atrial rate | termination of atrial arrhythmia (atrial flutter; i.v. bolus 1 mg/kg, in three of four dogs): terminated the atrial arrhythmia | termination of atrial arrhythmia (atrial flutter; i.v. bolus 10 mg/kg, in the fourth of four dogs): terminated the atrial arrhythmia
